# Results: patent US9950026B2, “Methods for reducing oxidative damage” (Cornell Research Foundation, Inc., priority 2004, dated 2018)
# Where a SMILES comes first, the peptide text is derived from it. [ ]: non-standard residue; d: D form. Dmt = Cc1cc(O)cc(C)c1C[C@H](N)C(=O)O
# Tests used:
# [1] = system: isolated mouse liver mitochondria; assay: H2O2 production by isolated mitochondria, luminol chemiluminescence; type: biochemical
# SH-SY5Y cells = assay: Apoptosis by nuclear morphology (Hoechst 33342) after tBHP; type: cell-based, human
# Method: FIG. 20A-20C. […] (A)(a-c; a′-c′) N2A cells were treated with 50 μM tBHP alone or with SS-31 for 12 h. Cells were stained with Hoechst 33342 for 20 min., fixed, and imaged by fluorescent microscopy. (a) Untreated cells show uniformly stained nuclei (a′). […] (c) Cells treated with tBHP and 1 nM SS-31 had less nuclear changes (c′). […] Apoptotic cells were counted using MetaMorph software. *P<0.01 compared to untreated cells; *P<0.01 compared to tBHP alone. […] SH-SY5Y cells were treated with 25 μM tBHP for 24 h. *P<0.01 compared to untreated cells; *P<0.01 compared to tBHP alone.
# SH-SY5Y cells were grown on 96-well plates, treated with t-BHP (0.025 mM) in the absence or presence of SS-31 (10^−12M-10^−9M) at 37° C. for 24 h. All treatments were carried out in quadriplicates. Cells were then stained with […] Hoechst 33342 for 20 min, fixed with 4% paraformaldehyde, and imaged using a Zeiss fluorescent microscope (Axiovert 200M) equipped with the Zeiss Acroplan x20 objective. Nuclear morphology was evaluated using an excitation wavelength of 350±10 nm and a longpass filter of 400 nm for emission. All images were processed and analyzed using the MetaMorph software (Universal Imaging Corp., West Chester, Pa.). Uniformly stained nuclei were scored as healthy, viable neurons, while condensed or fragmented nuclei were scored as apoptotic.
# [2] = system: Mouse pancreatic islet cells; assay: tBHP oxidative damage in islet cells (TMRM, DCF); type: cell-based; settings: 25 μM tBHP, 1 nM SS-31
# Method: Mouse pancreatic islet cells were untreated (a), or treated with 25 μM tBHP without or with 1 nM SS-31 (c). Mitochondrial potential was measured by TMRM (red) and reactive oxygen species were measured by DCF (green) using confocal microscopy.
# SN-4741 cells = assay: MPP+ toxicity, apoptosis by Hoechst 33342; type: cell-based; settings: 50 μM MPP+, 1 nM SS-31, 48 h
# Method: (A) SS-31 protects dopamine cells against MPP^+ toxicity. SN-4741 cells were treated with buffer, 50 μM MPP^+ or 50 μM MPP^+ and 1 nM SS-31, for 48 h, and the incidence of apoptosis was determined by fluorescent microscopy with Hoechst 33342.
# N2A cells [3] = assay: tBHP-induced LDH release; type: cell-based, murine; settings: 100 μM tBHP
# Method: FIG. 18A-18B. SS-31 reduced tBHP-induced LDH release in SH-SY5Y (A) and N2A (B) cells. Cells were treated with 100 μM tBHP alone, or with SS-31, for 24 h. *P<0.05, **P<0.01, ***P<0.001, compared to tBHP alone.
# The loss of cell viability induced by 100 μM tBHP was accompanied by a significant increase in LDH release in SH-SY5Y (FIG. 18A) and N2A cell (FIG. 18B).
# N2A cells [4] = assay: Mitochondrial function, MTT assay, after tBHP; type: cell-based, murine
# Method: FIG. 23A-23B. SS-31 protected against tBHP-induced […]. (A) SS-31 protected mitochondrial viability in N2A cells treated with tBHP for 24 h. Mitochondrial viability was evaluated using the MTT assay (*P<0.01 compared to untreated cells, *P<0.05, P<0.01 compared to tBHP alone). (B) SS-31 protected mitochondrial viability in SH-SY5Y cells treated with tBHP for […] (*P<0.01 compared to untreated cells; **P<0.01 compared to tBHP alone).
# Only viable mitochondria containing NADPH dehydrogenase activity are capable of cleaving MTT to the formazan. A 50 μM tBHP induced 50% loss of mitochondrial function in N2A cells (FIG. 23A, […]) and 30% loss of mitochondrial function in SH-SY5Y cells (FIG. 23B, P<0.01). […] Treatment of N2A cells with SS-31 alone had no effect on mitochondrial function.
# [5] = system: G93A-SOD transfected murine neuroblastoma (N2A) cells; assay: H2O2-induced cell death (LDH release); type: cell-based; settings: SS-31 between 1 and 100 μM added 1 h after exposure to H2O2
# Method: FIG. 24. Increased hydrogen peroxide (H2O2) sensitivity of G93A-SOD transfected murine neuroblastoma (N2A) cells as compared to wildtype SOD-transfected N2A cells after addition of 0.5 or 1 mM H2O2 for 1 h. Cell death was quantified by measurement of the percentage of H2O2-induced LDH release of total cellular LDH-content. […] Values are means+S.D., n=4-5, *p<0.1, **p<0.05, Student's t-test.
Molecule,"antimycin-induced increase in H2O2 production ([1]; antimycin 1 μM, peptide 1.0 μM)","amount of H2O2 production ([1]; basal, 10 μM)","number of apoptotic cells (SH-SY5Y cells; 25 μM tBHP, 24 h)","apoptosis induced by a low dose of t-BHP (SH-SY5Y cells; 0.025 mM t-BHP, 1 nM SS-31, 24 h)","percent of apoptotic cells (SH-SY5Y cells; 24 h, t-BHP 0.05 mM)",oxidative damage caused by tBHP [2],number of apoptotic cells (SN-4741 cells),LDH release (N2A cells [3]; 0.1 and 1 nM of SS-31),LDH release / tBHP-induced cytotoxicity (N2A cells [3]; 24 h),"tBHP-induced mitochondrial toxicity/dysfunction (MTT) (N2A cells [4]; tBHP 50-100 μM, 24 h)","mitochondrial function, peptide alone (N2A cells [4]; without tBHP)",H2O2-induced cell death [5]
"2′,6′-Dmt-Arg-Phe-Lys-NH2 [SS-02]",completely blocked,significantly reduced,,,,,,,,,,
"Cc1cc(O)cc(C)c1C[C@H](NC(=O)[C@H](N)CCCNC(=N)N)C(=O)N[C@@H](CCCCN)C(=O)N[C@@H](Cc1ccccc1)C(N)=O [SS-31, D-Arg-2′6′-Dmt-Lys-Phe-NH2] (H-[dR][Dmt]KF-NH2; N-terminus assumed)",,,dose-dependently reduced,prevents apoptosis,dose-dependently reduced,reduces oxidative damage,reduced the number of apoptotic cells,reduced significantly,dose-dependent decrease,dose-dependently reduced,no effect,significantly reduced
